According to patent US11053204B2, “Pyrimidinyloxy benzene derivatives as herbicides” (FMC Corporation, priority 2015, dated 2021):

Assays:
Type in all cases: in vivo
[1] = system: wheat (Triticum aestivum); assay: Test A postemergence, visual injury rating; conditions: 0 is no effect, 100 is complete control; for Wheat plant response rating: 0 to 100 scale, approximately 10 days
In short: (§1)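 Pre- and postemergence greenhouse screen. Soil: loam + sand. Spray carrier: solvent mixture, non-phytotoxic, with surfactant. Post timing at 1–2 leaves, height 2–10 cm. Readout: visual injury on a 0–100 scale roughly 10 days after application, untreated plants as reference.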

[2] = system: ragweed (common ragweed, Ambrosia elatior); assay: Test A postemergence, visual injury rating; conditions: 0 is no effect, 100 is complete control; for Ragweed plant response rating: 0 to 100 scale, approximately 10 days
In short: as §1

[3] = system: Italian ryegrass (Lolium multiflorum); assay: Test A postemergence, visual injury rating; conditions: 0 is no effect, 100 is complete control; for Ryegrass, Italian plant response rating: 0 to 100 scale, approximately 10 days
In short: as §1

kochia (Kochia scoparia) [4] = assay: Test A postemergence, visual injury rating; conditions: 0 is no effect, 100 is complete control; for Kochia plant response rating: 0 to 100 scale, approximately 10 days
In short: as §1

[5] = system: blackgrass (Alopecurus myosuroides); assay: Test A postemergence, visual injury rating; conditions: 0 is no effect, 100 is complete control; for Blackgrass plant response rating: 31 g ai/ha, 0 to 100 scale, approximately 10 days
In short: as §1

[6] = system: barnyardgrass (Echinochloa crus-galli); assay: Test A postemergence, visual injury rating; conditions: 0 is no effect, 100 is complete control; for Barnyardgrass plant response rating: 31 g ai/ha, 0 to 100 scale, approximately 10 days
In short: as §1

corn (Zea mays) = assay: Test A postemergence, visual injury rating; conditions: 0 is no effect, 100 is complete control; for Corn plant response rating: 31 g ai/ha, 0 to 100 scale, approximately 10 days
In short: as §1

[7] = system: galium (catchweed bedstraw, Galium aparine); assay: Test A postemergence, visual injury rating; conditions: 0 is no effect, 100 is complete control; for Galium plant response rating: 31 g ai/ha, 0 to 100 scale, approximately 10 days
In short: as §1

[8] = system: pigweed (Amaranthus retroflexus); assay: Test A postemergence, visual injury rating; conditions: 0 is no effect, 100 is complete control; for Pigweed plant response rating: 0 to 100 scale, approximately 10 days
In short: as §1

[9] = system: giant foxtail (Setaria faberii); assay: Test A postemergence, visual injury rating; conditions: 0 is no effect, 100 is complete control; for Foxtail, Giant plant response rating: 31 g ai/ha, 0 to 100 scale, approximately 10 days
In short: as §1

[10] = system: ragweed (common ragweed, Ambrosia elatior); assay: Test A preemergence, visual injury rating; conditions: for Plant response rating, Ragweed: 31 g ai/ha, 0 to 100 scale, 0 no effect, 100 complete control; for Ragweed plant response rating: 0 to 100 scale (0 no effect, 100 complete control)
In short: as §1

[11] = system: Italian ryegrass (Lolium multiflorum); assay: Test A preemergence, visual injury rating; conditions: for Plant response rating, Ryegrass, Italian: 31 g ai/ha, 0 to 100 scale, 0 no effect, 100 complete control; for Ryegrass, Italian plant response rating: 0 to 100 scale (0 no effect, 100 complete control)
In short: as §1

kochia (Kochia scoparia) [12] = assay: Test A preemergence, visual injury rating; conditions: for Plant response rating, Kochia: 31 g ai/ha, 0 to 100 scale, 0 no effect, 100 complete control; for Kochia plant response rating: 0 to 100 scale (0 no effect, 100 complete control)
In short: as §1

[13] = system: barnyardgrass (Echinochloa crus-galli); assay: Test A preemergence, visual injury rating; conditions: for Plant response rating, Barnyardgrass: 31 g ai/ha, 0 to 100 scale, 0 no effect, 100 complete control; for Barnyardgrass plant response rating: 0 to 100 scale (0 no effect, 100 complete control)
In short: as §1

[14] = system: pigweed (Amaranthus retroflexus); assay: Test A preemergence, visual injury rating; conditions: for Plant response rating, Pigweed: 31 g ai/ha, 0 to 100 scale, 0 no effect, 100 complete control; for Pigweed plant response rating: 0 to 100 scale (0 no effect, 100 complete control)
In short: as §1

[15] = system: giant foxtail (Setaria faberii); assay: Test A preemergence, visual injury rating; conditions: for Plant response rating, Foxtail, Giant: 31 g ai/ha, 0 to 100 scale, 0 no effect, 100 complete control; for Foxtail, Giant plant response rating: 0 to 100 scale (0 no effect, 100 complete control)
In short: as §1

[16] = system: barnyardgrass (Echinochloa crus-galli); assay: Test B flooded paddy test, plant response rating; conditions: 250 g ai/ha; Flood; scale of 0 to 100 where 0 is no effect and 100 is complete control; 13 to 15 days
In short: (§2)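 Ratings were visual and made relative to untreated controls after 13 to 15 greenhouse days.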

[17] = system: ducksalad (Heteranthera limosa); assay: Test B flooded paddy test, plant response rating; conditions: 250 g ai/ha; Flood; scale of 0 to 100 where 0 is no effect and 100 is complete control; 13 to 15 days
In short: as §2

rice (Oryza sativa) = assay: Test B flooded paddy test, plant response rating; conditions: 250 g ai/ha; Flood; scale of 0 to 100 where 0 is no effect and 100 is complete control; 13 to 15 days
In short: as §2

[18] = system: sedge, umbrella (small-flower umbrella sedge, Cyperus difformis); assay: Test B flooded paddy test, plant response rating; conditions: 250 g ai/ha; Flood; scale of 0 to 100 where 0 is no effect and 100 is complete control; 13 to 15 days
In short: as §2

Compound	Wheat plant response rating ([1]; 125 g ai/ha)	Ragweed plant response rating ([2]; 125 g ai/ha)	Ryegrass, Italian plant response rating ([3]; 125 g ai/ha)	Kochia plant response rating (kochia (Kochia scoparia) [4]; 125 g ai/ha)	Blackgrass plant response rating (0 to 100 scale) ([5]; 125 g ai/ha)	Barnyardgrass plant response rating (0 to 100 scale) ([6]; 125 g ai/ha)	Corn plant response rating (0 to 100 scale) (corn (Zea mays); 125 g ai/ha)	Galium plant response rating (0 to 100 scale) ([7]; 125 g ai/ha)	Pigweed plant response rating ([8]; 125 g ai/ha)	Foxtail, Giant plant response rating (0 to 100 scale) ([9]; 125 g ai/ha)	Ragweed plant response rating ([10]; 125 g ai/ha)	Ryegrass, Italian plant response rating ([11]; 125 g ai/ha)	Kochia plant response rating (kochia (Kochia scoparia) [12]; 125 g ai/ha)	Barnyardgrass plant response rating ([13]; 125 g ai/ha)	Pigweed plant response rating ([14]; 125 g ai/ha)	Foxtail, Giant plant response rating ([15]; 125 g ai/ha)	Plant response rating, Barnyardgrass [16]	Plant response rating, Ducksalad [17]	Plant response rating, Rice (rice (Oryza sativa))	Plant response rating, Sedge, Umbrella [18]	also measured
FC(F)(F)CCCOCc1c(Br)cccc1Oc1ncc(Cl)cn1 [Compound 74]	10	10	20	40	30	40	20	80	100	70	0	20	100	60	90	100	40	100	0	100	Wheat plant response rating ([1]; 31 g ai/ha): 0; Ragweed plant response rating ([2]; 31 g ai/ha): 0; Ryegrass, Italian plant response rating ([3]; 31 g ai/ha): 0; Kochia plant response rating (kochia (Kochia scoparia) [4]; 31 g ai/ha): 20; Blackgrass plant response rating [5]: 10; Barnyardgrass plant response rating [6]: 10; Corn plant response rating (corn (Zea mays)): 10; Galium plant response rating [7]: 20; Pigweed plant response rating ([8]; 31 g ai/ha): 60; Foxtail, Giant plant response rating [9]: 20; Plant response rating, Ragweed [10]: 0; Plant response rating, Ryegrass, Italian [11]: 0; Plant response rating, Kochia (kochia (Kochia scoparia) [12]): 0; Plant response rating, Barnyardgrass [13]: 10; Plant response rating, Pigweed [14]: 20; Plant response rating, Foxtail, Giant [15]: 40
CC(=NOC(C)C)c1c(F)cccc1Oc1ncc(Cl)cn1 [Compound 76]	0	0	0	0	0	0	0	90	30	0	0	0	0	70	50	70	0	85	10	70	Wheat plant response rating ([1]; 31 g ai/ha): 0; Ragweed plant response rating ([2]; 31 g ai/ha): 0; Ryegrass, Italian plant response rating ([3]; 31 g ai/ha): 0; Kochia plant response rating (kochia (Kochia scoparia) [4]; 31 g ai/ha): 0; Blackgrass plant response rating [5]: 0; Barnyardgrass plant response rating [6]: 0; Corn plant response rating (corn (Zea mays)): 0; Galium plant response rating [7]: 0; Pigweed plant response rating ([8]; 31 g ai/ha): 0; Foxtail, Giant plant response rating [9]: 0; Plant response rating, Ragweed [10]: 0; Plant response rating, Ryegrass, Italian [11]: 0; Plant response rating, Kochia (kochia (Kochia scoparia) [12]): 0; Plant response rating, Barnyardgrass [13]: 0; Plant response rating, Pigweed [14]: 0; Plant response rating, Foxtail, Giant [15]: 0
O=C(OC1CCC1)c1c(Br)cccc1Oc1ncc(Cl)cn1 [Compound 78]	20	0	0	70	20	60	40	70	80	50	0	0	20	60	80	90	20	70	15	80	Wheat plant response rating (0 to 100 scale) ([1]; 500 g ai/ha): 30; Ragweed plant response rating (0 to 100 scale) ([2]; 500 g ai/ha): 30; Ryegrass, Italian plant response rating (0 to 100 scale) ([3]; 500 g ai/ha): 30; Kochia plant response rating (0 to 100 scale) (kochia (Kochia scoparia) [4]; 500 g ai/ha): 100; Blackgrass plant response rating (0 to 100 scale) ([5]; 500 g ai/ha): 60; Barnyardgrass plant response rating (0 to 100 scale) ([6]; 500 g ai/ha): 100; Corn plant response rating (0 to 100 scale) (corn (Zea mays); 500 g ai/ha): 60; Galium plant response rating (0 to 100 scale) ([7]; 500 g ai/ha): 100; Pigweed plant response rating (0 to 100 scale) ([8]; 500 g ai/ha): 90; Foxtail, Giant plant response rating (0 to 100 scale) ([9]; 500 g ai/ha): 80; Ragweed plant response rating ([10]; 500 g ai/ha): 0; Ryegrass, Italian plant response rating ([11]; 500 g ai/ha): 20; Kochia plant response rating (kochia (Kochia scoparia) [12]; 500 g ai/ha): 60; Barnyardgrass plant response rating ([13]; 500 g ai/ha): 100; Pigweed plant response rating ([14]; 500 g ai/ha): 100; Foxtail, Giant plant response rating ([15]; 500 g ai/ha): 100
